Patent US20160015704A1, “COMBINATIONS COMPRISING MABA COMPOUNDS AND CORTICOSTEROIDS” (ALMIRALL, S.A., priority 2013, published 2016)

Tested on: IL-8 secretion induced by LPS in peripheral blood neutrophils
Assay: Inhibition of IL-8 secretion induced by LPS in isolated peripheral blood neutrophils (ELISA)
Type: cell-based
Details: Homo sapiens, Neutrophil; for inhibition at 10 pM: single agent 0.01 nM
Experimental: 5 Healthy subjects were included for leukocyte experiments. Pulmonary function tests (forced spirometry) and arterial blood gas measurements were performed during the days prior to sample.
Neutrophils were isolated from peripheral blood of healthy volunteers according to standard procedures established in the laboratory (Milara J et al., Respiration 2012; 83, 147-158).
Isolated neutrophils were incubated with different drugs (MABA compound, mometasone or fluticasone) or vehicle for 30 minutes before incubation with LPS (1 mcg/mL) (Lipopolysaccharide, a representative stimulus as inflammatory mediator) for 6 hours in standard cell culture conditions (37° C. and 5% CO2). Supernatant were collected to measure IL-8 (the inflammatory marker).
IL-8 (Interleukin-8) was determined by ELISA according to the standard procedure.
Data was presented as mean±SEM. Statistical analysis of results was carried out by analysis of variance (ANOVA) followed by Bonferroni test, by Student's t test, or by non-parametric tests as appropriate (GraphPad Software Inc, San Diego, Calif., USA). Significance was accepted when P<0.05.

[1] = 30 min pre-incubation, LPS 1 mcg/mL 6 h, neutrophils from healthy subjects (5 volunteers in triplicate), Table 1

Structure (SMILES)	inhibition at 10 pM [1] [%]	inhibition at 10 pM (IL-8 secretion induced by LPS 1 mcg/mL 6 h, neutrophils from healthy subjects, Table 2) [%]	inhibition at 0.0001 µM (single agent 0.1 nM, IL-8 secretion induced by LPS 1 mcg/mL 6 h, neutrophils from healthy subjects, Table 2) [%]
COc1cc(NC(=O)OCCN(C)[C@H]2CC[C@H](OC(=O)C(O)(c3cccs3)c3cccs3)CC2)c(Cl)cc1CNC[C@H](O)c1ccc(O)c2[nH]c(=O)ccc12 [Cpd 1, trans-4-[{2-[({[2-chloro-4-({[(2R)-2-hydroxy-2-(8-hydroxy-2-oxo-1,2-dihydroquinolin-5-yl)ethyl]amino}methyl)-5-methoxyphenyl]amino}carbonyl)oxy]ethyl}-(methyl)amino]cyclohexyl hydroxy(di-2-thienyl)acetate]	5.6	5.6	
C[C@@H]1C[C@H]2[C@@H]3C[C@H](F)C4=CC(=O)C=C[C@]4(C)[C@@]3(F)[C@@H](O)C[C@]2(C)[C@@]1(O)C(=O)SCF [Fluticasone, fluticasone]			10.2
C[C@@H]1C[C@H]2[C@@H]3CCC4=CC(=O)C=C[C@]4(C)[C@@]3(Cl)[C@@H](O)C[C@]2(C)[C@@]1(O)C(=O)CCl [Mometasone, mometasone]	2.85		
